The record followed here is PMC11191317, “PNSC928, a plant-derived compound, specifically disrupts CtBP2-p300 interaction and reduces inflammation in mice with acute respiratory distress syndrome” (Biology Direct, 2024).

Molecules are shown by their SMILES.

The series relates to C57BL/6 mice. Nature of the series: In vivo toxicity in C57BL/6 mice (body weight, serum cytokines, liver and kidney function, H&E). The arrangement: species or system mouse. The settings on record: for Body weight: C57BL/6 mice, 6 days, MTOB 400 and 800, NSC95397 2 and 4, C646 5 and 10, A-485 40 and 80, TPCA1 10 and 20, BOT64 30 and 60 mg/kg. Here is the method: Whole blood samples were allowed to stand undisturbed at room temperature for 15 min before being centrifuged at 1,000 × g for 10 min. The supernatant serum and BALF were used to measure concentrations of IL-1β, IL-6, IL-15, IL-18, and TNF-α with specific enzyme-linked immunosorbent assay (ELISA) kits as per manufacturer guidelines. The ELISA kits used were: IL-1β (Thermo Fisher; #KMC0011), IL-6 (Thermo Fisher; #KMC0061), IL-15 (Abcam; Shanghai, China; #ab275898), IL-18 (Thermo Fisher; #BMS618-3), and TNF-α (Thermo Fisher; #BMS607-3). Total BALF protein levels were measured using the BCA Protein Assay Kit (Abcam; #ab102536) according to the manufacturer’s protocol.
Serum activities or levels of alanine aminotransferase (ALT), aspartate aminotransferase (AST), alkaline phosphatase (ALP), blood urea nitrogen (BUN), and creatinine were measured using commercially available assay kits, including the ALT Activity Assay Kit (Abcam; #ab105134), AST Activity Assay Kit (Abcam; #ab105135), ALP Assay Kit (Abcam; #ab83369), BUN Colorimetric Detection Kit (Thermo Fisher; #EIABUN), and Creatinine Assay Kit (Abcam; #ab65340). All experimental procedures were conducted according to the respective manufacturer’s protocols.
Lung, heart, liver, and kidney tissues were collected from various groups of mice, including ARDS, ARDS + MTOB, ARDS + NSC95397, ARDS + C646, ARDS + A-485, ARDS + TPCA1, ARDS + BOT64, and ARDS + PNSC928. The tissues were fixed in 10% neutral-buffered formalin (Sigma-Aldrich; #HT501128) for 48 h, then dehydrated through a graded ethanol series (70%, 80%, 90%, and 100%, for 30 min each). The dehydrated tissues were embedded in paraffin blocks and allowed to solidify. The paraffin blocks were sectioned at 5 μm, with the sections floated on a water bath to remove wrinkles before being transferred onto glass slides. The slides were dried, dewaxed with xylene, and rehydrated through a reverse ethanol series (100%, 90%, 80%, and 70%, for 30 min each), followed by a final rinse in distilled water. The rehydrated sections were stained using the Hematoxylin and Eosin Kit (Abcam; #ab245880) according to the manufacturer’s guidelines. After staining, the sections were dehydrated through a graded ethanol series (70%, 80%, 90%, and 100%, for 30 min each), then cleared with xylene. The sections were mounted with a mounting medium (Abcam; #ab64230) and imaged using a Nikon light microscope for tissue morphology.
C57BL/6 mice were administrated with MTOB (400 and 800 mg/kg), NSC95397 (2 and 4 mg/kg), C646 (5 and 10 mg/kg), A-485 (40 and 80 mg/kg), TPCA1 (10 and 20 mg/kg), BOT64 (30 and 60 mg/kg) for a duration of 6 days (n = 10 for each group). (A-F) Body weights were measured every two days. (G-K) Serum concentrations of different groups of mice. (G) IL-1β, (H) IL-6, (I) IL-15, (J) IL-18, and (K) TNF-α. *P < 0.05
C57BL/6 mice were administrated with MTOB (400 and 800 mg/kg), NSC95397 (2 and 4 mg/kg), C646 (5 and 10 mg/kg), A-485 (40 and 80 mg/kg), TPCA1 (10 and 20 mg/kg), and BOT64 (30 and 60 mg/kg) for a duration of 6 days (n=10 for each group). (A) Serum concentration of IFN-γ in different groups of mice. (B) Serum BUN concentration. (C) Activities of ALT, AST, and ALP in serum. (D) Serum creatinine concentration. (E) Representative H&E staining images of lung, liver, kidney, and heart from the following groups of mice: Control, MTOB (800 mg/kg), NSC95397 (4 mg/kg), C646 (10 mg/kg), A-485 (80 mg/kg), TPCA1 (20 mg/kg), and BOT64 (60 mg/kg). Bars=100 μm. For the significant difference analysis in B-D, all drug-treated groups were compared with the Control group of mice. *P<0.05; **P<0.01; ***P<0.001.
[…] (A) Serum ALT activity. (B) Serum AST activity. (C) Serum ALP activity. (D) Serum BUN concentration. (E) Serum creatinine concentration. (F) Body weights were recorded every two days. (G) Representative H&E staining images of lung, liver, kidney, and heart. Bars=100 μm.

Where [1] appears, read: PNSC928 0, 5, 10, and 20 mg/kg at two-day intervals for 6 days.

Regarding `CNC(=O)Nc1ccc2c(c1)CC[C@@]21OC(=O)N(CC(=O)N(Cc2ccc(F)cc2)[C@@H](C)C(F)(F)F)C1=O` [A-485], the Body weight entry is on record as “significant decrease in body weight”.

For `CC1(C)CC(=O)c2sc(=Nc3ccccc3)oc2C1` [BOT64], the Body weight result is reported as “significant decrease in body weight”.

As to `CC1=NN(c2ccc(C(=O)O)cc2)C(=O)/C1=C\c1ccc(-c2cc(C)c(C)cc2[N+](=O)[O-])o1` [C646], the Body weight result is given as “significant decrease in body weight”.

With `CSCCC(=O)C(=O)O` [MTOB], the Body weight entry is recorded as “significant decrease in body weight”.

As to `O=C1C(SCCO)=C(SCCO)C(=O)c2ccccc21` [NSC95397], the Body weight entry is on record as “significant decrease in body weight”.

Regarding `CC(=CCCC1=CCC(C2COC(=O)C2)OC1O)CCC1=C(C)CCCC1(C)C` (stereo not shown) [PNSC928], under setting [1], the “Activities and levels of ALT, AST, ALP, BUN, and creatinine” value is recorded as “no discernible alterations”; the “Histological examination of lung, heart, liver, and kidney” value was “no conspicuous damage”; the Mouse body weights result is reported as “did not affect mouse body weights”. The “Behavioral activities (feeding, balance ability, sleeping patterns)” value (PNSC928 0, 5, 10, and 20 mg/kg at two-day intervals for 6 days, data not shown) was “did not affect”.

Regarding `NC(=O)Nc1sc(-c2ccc(F)cc2)cc1C(N)=O` [TPCA1], the Body weight result is reported as “significant decrease in body weight”.
